In PubChem BioAssay (NCI):
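These data come from cells grown in 96-well plates and exposed to compound for 48 hours at five concentrations. GI50 is the concentration that inhibits growth by half. Definition used: TGI = concentration required for complete inhibition of growth.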

Legend:
Test in all cases: NCI tumour cell line growth inhibition, 48 h
A498 renal = test system: A498 renal
NCI-H522 lung = test system: NCI-H522 lung
OVCAR-5 ovarian = test system: OVCAR-5 ovarian
RPMI-8226 leukemia = test system: RPMI-8226 leukemia
SF-539 CNS = test system: SF-539 CNS
UACC-257 melanoma = test system: UACC-257 melanoma
A549 NSCLC = test system: A549 NSCLC
786-0 renal = test system: 786-0 renal
NCI-H23 lung = test system: NCI-H23 lung
BT-549 breast = test system: BT-549 breast
OVCAR-3 ovarian = test system: OVCAR-3 ovarian
SNB-19 CNS = test system: SNB-19 CNS
SK-MEL-5 melanoma = test system: SK-MEL-5 melanoma
RXF 393 renal = test system: RXF 393 renal
M14 melanoma = test system: M14 melanoma
MDA-MB-435 = test system: MDA-MB-435
SK-MEL-28 melanoma = test system: SK-MEL-28 melanoma
MALME-3M melanoma = test system: MALME-3M melanoma
U251 CNS = test system: U251 CNS
UO-31 renal = test system: UO-31 renal
SF-268 CNS = test system: SF-268 CNS
LOX IMVI melanoma = test system: LOX IMVI melanoma
SNB-75 CNS = test system: SNB-75 CNS
SK-OV-3 ovarian = test system: SK-OV-3 ovarian
SN12C renal = test system: SN12C renal
NCI/ADR-RES ovarian = test system: NCI/ADR-RES ovarian
CAKI-1 renal = test system: CAKI-1 renal
HCC-2998 colon = test system: HCC-2998 colon
HOP-62 NSCLC = test system: HOP-62 NSCLC
SR leukemia = test system: SR leukemia
CCRF-CEM leukemia = test system: CCRF-CEM leukemia
HOP-92 NSCLC = test system: HOP-92 NSCLC
T-47D breast = test system: T-47D breast
HT29 colon = test system: HT29 colon
UACC-62 melanoma = test system: UACC-62 melanoma
OVCAR-4 ovarian = test system: OVCAR-4 ovarian
PC-3 prostate = test system: PC-3 prostate
HL-60(TB) leukemia = test system: HL-60(TB) leukemia
HCT-15 colon = test system: HCT-15 colon
ACHN renal = test system: ACHN renal
SW-620 colon = test system: SW-620 colon
KM12 colon = test system: KM12 colon
DU-145 prostate = test system: DU-145 prostate
IGROV1 ovarian = test system: IGROV1 ovarian
OVCAR-8 ovarian = test system: OVCAR-8 ovarian
SK-MEL-2 melanoma = test system: SK-MEL-2 melanoma
COLO 205 colon = test system: COLO 205 colon
MDA-MB-231 breast = test system: MDA-MB-231 breast
HS 578T breast = test system: HS 578T breast
TK-10 renal = test system: TK-10 renal
NCI-H226 lung = test system: NCI-H226 lung
K-562 leukemia = test system: K-562 leukemia
HCT-116 colon = test system: HCT-116 colon
SF-295 CNS = test system: SF-295 CNS
NCI-H460 lung = test system: NCI-H460 lung
MOLT-4 leukemia = test system: MOLT-4 leukemia
MCF7 breast = test system: MCF7 breast

## CN(CCO)C1CCN(c2ccc(Nc3ncc4c5ccnc(F)c5n(C5CCCC5)c4n3)nc2)CC1
A498 renal
  GI50: 0.366 µM
  TGI: 14.6 µM
NCI-H522 lung
  GI50: 17.2 µM
  TGI: 36.2 µM
OVCAR-5 ovarian
  GI50: 0.812 µM
  TGI: 20.7 µM
RPMI-8226 leukemia
  GI50: 0.184 µM
  TGI: 19.8 µM
SF-539 CNS
  GI50: 4.6 µM
  TGI: 10.5 µM
UACC-257 melanoma
  GI50: 17.6 µM
  TGI: 40 µM
A549 NSCLC
  GI50: 2.27 µM
  TGI: 7.9 µM
786-0 renal
  GI50: 5.12 µM
  TGI: 26.9 µM
NCI-H23 lung
  GI50: 7.76 µM
  TGI: 32.3 µM
BT-549 breast
  GI50: 13.1 µM
  TGI: 31.4 µM
OVCAR-3 ovarian
  GI50: 14.9 µM
  TGI: 30.4 µM
SNB-19 CNS
  GI50: 2.47 µM
  TGI: 33.8 µM
SK-MEL-5 melanoma
  GI50: 10.9 µM
  TGI: 25.9 µM
RXF 393 renal
  GI50: 1.73 µM
  TGI: 16.8 µM
M14 melanoma
  GI50: 11.7 µM
  TGI: 32.8 µM
MDA-MB-435
  GI50: 5.84 µM
  TGI: 20.7 µM
SK-MEL-28 melanoma
  GI50: 12.3 µM
  TGI: 28.9 µM
MALME-3M melanoma
  GI50: 12.7 µM
  TGI: 34.5 µM
U251 CNS
  GI50: 2.74 µM
  TGI: 7.5 µM
UO-31 renal
  GI50: 1.86 µM
  TGI: 20.9 µM
SF-268 CNS
  GI50: 12.5 µM
  TGI: 30.9 µM
LOX IMVI melanoma
  GI50: 1.02 µM
  TGI: 2.24 µM
SNB-75 CNS
  GI50: 5.67 µM
  TGI: 20.7 µM
SK-OV-3 ovarian
  GI50: 11.1 µM
  TGI: 26 µM
SN12C renal
  GI50: 12.2 µM
  TGI: 31.5 µM
NCI/ADR-RES ovarian
  GI50: 15.3 µM
  TGI: 36 µM
CAKI-1 renal
  GI50: 4.44 µM
  TGI: 21.3 µM
HCC-2998 colon
  GI50: 11.1 µM
  TGI: 25.4 µM
HOP-62 NSCLC
  GI50: 4.7 µM
  TGI: 25.4 µM
SR leukemia
  GI50: 1.23 µM
  TGI: 4.61 µM
CCRF-CEM leukemia
  GI50: 0.208 µM
  TGI: 3.59 µM
HOP-92 NSCLC
  GI50: 11.6 µM
  TGI: 28.8 µM
T-47D breast
  GI50: 17.5 µM
  TGI: 69.1 µM
HT29 colon
  GI50: 1.23 µM
  TGI: 4.45 µM
UACC-62 melanoma
  GI50: 16.7 µM
  TGI: 46 µM
OVCAR-4 ovarian
  GI50: 11.2 µM
  TGI: 27.7 µM
PC-3 prostate
  GI50: 8.47 µM
  TGI: 25.8 µM
HL-60(TB) leukemia
  GI50: 0.103 µM
  TGI: 8.05 µM
HCT-15 colon
  GI50: 3.01 µM
  TGI: 7.79 µM
ACHN renal
  GI50: 1.98 µM
  TGI: 20.6 µM
SW-620 colon
  GI50: 0.184 µM
  TGI: 2.21 µM
KM12 colon
  GI50: 0.0514 µM
  TGI: 1.73 µM
DU-145 prostate
  GI50: 1.76 µM
  TGI: 3.18 µM
IGROV1 ovarian
  GI50: 11.7 µM
  TGI: 30.8 µM
OVCAR-8 ovarian
  GI50: 14.7 µM
  TGI: 43.4 µM
SK-MEL-2 melanoma
  GI50: 20.4 µM
  TGI: 45.6 µM
COLO 205 colon
  GI50: 0.0817 µM
  TGI: 18.5 µM
MDA-MB-231 breast
  GI50: 6.01 µM
  TGI: 24.2 µM
HS 578T breast
  GI50: 6.01 µM
  TGI: 34.3 µM
TK-10 renal
  GI50: 1.59 µM
  TGI: 21.2 µM
NCI-H226 lung
  GI50: 16.3 µM
  TGI: 55 µM
K-562 leukemia
  GI50: 1.32 µM
  TGI: 4.08 µM
HCT-116 colon
  GI50: 1.85 µM
  TGI: 7.36 µM
SF-295 CNS
  GI50: 2.22 µM
  TGI: 20.2 µM
NCI-H460 lung
  GI50: 0.99 µM
  TGI: 2.44 µM
MOLT-4 leukemia
  GI50: 0.0513 µM
  TGI: 9.74 µM
MCF7 breast
  GI50: 0.106 µM
  TGI: 3.05 µM
